The experiment has as its target recombinant human His-ATG7 enzyme (Homo sapiens (Human), UniProt O95352). As to the kind of experiment: ATG7 Enzyme Assay (HTRF/FRET, ATG3-GST and Flag-Gabarap). The class given is biochemical. To be noted: for inhibition at 0.111 µM: Concentration 0.111 μM. The procedure, abridged: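 HTRF read-out after 2 h at 24° C, using Eu-cryptate anti-Flag and XL-APC anti-GST antibodies in an EDTA stop buffer. The preceding 105 min, 24° C reaction (pH 7.5) held 10 μM ATP, 5 nM each ATG3-GST and Flag-Gabarap, and 0.15 nM human His-ATG7. Values are IC50 or percent inhibition at one concentration.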
In general terms: In TR-FRET formats the signal depends on donor and acceptor labels being close together.

recombinant human His-ATG7 enzyme, sequence (O95352 whole entry): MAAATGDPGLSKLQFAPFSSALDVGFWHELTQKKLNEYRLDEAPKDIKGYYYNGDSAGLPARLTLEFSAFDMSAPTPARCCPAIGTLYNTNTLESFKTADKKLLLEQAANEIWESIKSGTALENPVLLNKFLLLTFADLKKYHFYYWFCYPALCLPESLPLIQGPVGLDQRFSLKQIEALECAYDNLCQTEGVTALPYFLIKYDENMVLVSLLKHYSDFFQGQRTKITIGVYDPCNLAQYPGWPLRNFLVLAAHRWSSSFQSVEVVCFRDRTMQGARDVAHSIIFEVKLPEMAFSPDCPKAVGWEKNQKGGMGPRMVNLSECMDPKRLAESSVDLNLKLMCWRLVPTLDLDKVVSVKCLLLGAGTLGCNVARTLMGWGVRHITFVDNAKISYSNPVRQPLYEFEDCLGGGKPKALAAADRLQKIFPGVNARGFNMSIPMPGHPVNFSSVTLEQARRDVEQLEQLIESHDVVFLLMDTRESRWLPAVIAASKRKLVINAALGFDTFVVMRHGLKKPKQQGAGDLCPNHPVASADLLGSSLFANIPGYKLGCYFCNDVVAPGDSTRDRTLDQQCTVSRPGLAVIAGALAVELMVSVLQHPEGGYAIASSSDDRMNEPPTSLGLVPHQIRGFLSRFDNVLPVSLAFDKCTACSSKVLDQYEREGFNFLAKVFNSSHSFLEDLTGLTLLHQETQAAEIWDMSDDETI

Broadly, the IC50 is the midpoint of a concentration-inhibition curve. One may read the inhibition as how much of the control response was suppressed. On to `Nc1ncnc2c1c(SCc1ccccn1)nn2[C@@H]1O[C@H](COS(N)(=O)=O)[C@@H](O)[C@@H]1F` [Compound I-119, [(2R,3R,4S,5R)-5-{4-amino-3-[(pyridin-2-ylmethyl)sulfanyl]-1H-pyrazolo[3,4-d]pyrimidin-1-yl}-4-fluoro-3-hydroxytetrahydrofuran-2-yl]methyl sulfamate], for which the IC50 lay in the range of 50 to 100 nM. Under “read-out: Percent Inhibition”, the inhibition at 0.111 µM turned out to be 65%.
Consider `CCC(CC)Sc1nn([C@@H]2O[C@H](COS(N)(=O)=O)[C@@H](O)[C@@H]2F)c2ncnc(N)c12` [Compound I-120, {(2R,3R,4S,5R)-5-[4-amino-3-(pentan-3-ylsulfanyl)-1H-pyrazolo[3,4-d]pyrimidin-1-yl]-4-fluoro-3-hydroxytetrahydrofuran-2-yl}methyl sulfamate], for which the half-inhibitory concentration (IC50) was 100 to 500 nM. The inhibition at 0.111 µM (read-out: Percent Inhibition) was found to be 46%.
Consider `Nc1ncnc2c1c(SCc1cccnc1)nn2[C@@H]1O[C@H](COS(N)(=O)=O)[C@@H](O)[C@@H]1F` [Compound I-121, [(2R,3R,4S,5R)-5-{4-amino-3-[(pyridin-3-ylmethyl)sulfanyl]-1H-pyrazolo[3,4-d]pyrimidin-1-yl}-4-fluoro-3-hydroxytetrahydrofuran-2-yl]methyl sulfamate], for which the IC50 lay within 50 to 100 nM. Besides, the inhibition at 0.111 µM (read-out: Percent Inhibition) was found to be 65%.
The corresponding values for `Nc1ncnc2c1c(SC1CCCCC1)nn2[C@@H]1O[C@H](COS(N)(=O)=O)[C@@H](O)[C@@H]1F` [Compound I-122, {(2R,3R,4S,5R)-5-[4-amino-3-(cyclohexylsulfanyl)-1H-pyrazolo[3,4-d]pyrimidin-1-yl]-4-fluoro-3-hydroxytetrahydrofuran-2-yl}methyl sulfamate] are 20 to 50 nM and 80%.
The corresponding values for `Nc1ncnc2c1c(SCc1ccncc1)nn2[C@@H]1O[C@H](COS(N)(=O)=O)[C@@H](O)[C@@H]1F` [Compound I-124, [(2R,3R,4S,5R)-5-{4-amino-3-[(pyridin-4-ylmethyl)sulfanyl]-1H-pyrazolo[3,4-d]pyrimidin-1-yl}-4-fluoro-3-hydroxytetrahydrofuran-2-yl]methyl sulfamate] are 50 to 100 nM and 52%.
For `Cn1ccnc1Sc1nn([C@@H]2O[C@H](COS(N)(=O)=O)[C@@H](O)[C@@H]2F)c2ncnc(N)c12` [Compound I-125, [(2R,3R,4S,5R)-5-{4-amino-3-[(1-methyl-1H-imidazol-2-yl)sulfanyl]-1H-pyrazolo[3,4-d]pyrimidin-1-yl}-4-fluoro-3-hydroxytetrahydrofuran-2-yl]methyl sulfamate], the IC50 lay within 100 to 500 nM. Moreover, the inhibition at 0.111 µM (read-out: Percent Inhibition) amounted to 37%.
The corresponding values for `Nc1ncnc2c1c(Sc1ccc(F)cc1)nn2[C@@H]1O[C@H](COS(N)(=O)=O)[C@@H](O)[C@@H]1F` [Compound I-126, [(2R,3R,4S,5R)-5-{4-amino-3-[(4-fluorophenyl)sulfanyl]-1H-pyrazolo[3,4-d]pyrimidin-1-yl}-4-fluoro-3-hydroxytetrahydrofuran-2-yl]methyl sulfamate] are 20 to 50 nM and 71%.
Take `Nc1ncnc2c1c(SCc1cccnn1)nn2[C@@H]1O[C@H](COS(N)(=O)=O)[C@@H](O)[C@@H]1F` [Compound I-127, [(2R,3R,4S,5R)-5-{4-amino-3-[(pyridazin-3-ylmethyl)sulfanyl]-1H-pyrazolo[3,4-d]pyrimidin-1-yl}-4-fluoro-3-hydroxytetrahydrofuran-2-yl]methyl sulfamate]: the IC50 lay within 50 to 100 nM. Where the note is “read-out: Percent Inhibition”, the inhibition at 0.111 µM was found to be 61%.
With `Nc1ncnc2c1c(SCc1ccnnc1)nn2[C@@H]1O[C@H](COS(N)(=O)=O)[C@@H](O)[C@@H]1F` [Compound I-128, [(2R,3R,4S,5R)-5-{4-amino-3-[(pyridazin-4-ylmethyl)sulfanyl]-1H-pyrazolo[3,4-d]pyrimidin-1-yl}-4-fluoro-3-hydroxytetrahydrofuran-2-yl]methyl sulfamate], the IC50 lay within 50 to 100 nM. Also, the inhibition at 0.111 µM (read-out: Percent Inhibition) is 52%.
The corresponding values for `CC(C)[C@@H](C)Sc1nn([C@@H]2O[C@H](COS(N)(=O)=O)[C@@H](O)[C@@H]2F)c2ncnc(N)c12` [Compound I-129, [(2R,3R,4S,5R)-5-(4-amino-3-{[(2R)-3-methylbutan-2-yl]sulfanyl}-1H-pyrazolo[3,4-d]pyrimidin-1-yl)-4-fluoro-3-hydroxytetrahydrofuran-2-yl]methyl sulfamate] are 100 to 500 nM and 48%.
For `N#Cc1ccnc(Sc2nn([C@@H]3O[C@H](COS(N)(=O)=O)[C@@H](O)[C@@H]3F)c3ncnc(N)c23)c1` [Compound I-130, [(2R,3R,4S,5R)-5-{4-amino-3-[(4-cyanopyridin-2-yl)sulfanyl]-1H-pyrazolo[3,4-d]pyrimidin-1-yl}-4-fluoro-3-hydroxytetrahydrofuran-2-yl]methyl sulfamate] the same measures were 20 to 50 nM and 77%.
In the case of `Nc1ncnc2c1c(Sc1ccc(C(F)(F)F)cc1)nn2[C@@H]1O[C@H](COS(N)(=O)=O)[C@@H](O)[C@@H]1F` [Compound I-132, [(2R,3R,4S,5R)-5-(4-amino-3-{[4-(trifluoromethyl)phenyl]sulfanyl}-1H-pyrazolo[3,4-d]pyrimidin-1-yl)-4-fluoro-3-hydroxytetrahydrofuran-2-yl]methyl sulfamate], the IC50 was in the range of 50 to 100 nM. Moreover, the inhibition at 0.111 µM (read-out: Percent Inhibition) was 60%.
For `Nc1ncnc2c1c(Sc1ccc(Cl)cc1)nn2[C@@H]1O[C@H](COS(N)(=O)=O)[C@@H](O)[C@@H]1F` [Compound I-133, [(2R,3R,4S,5R)-5-{4-amino-3-[(4-chlorophenyl)sulfanyl]-1H-pyrazolo[3,4-d]pyrimidin-1-yl}-4-fluoro-3-hydroxytetrahydrofuran-2-yl]methyl sulfamate], the IC50 lay within 20 to 50 nM. Under “read-out: Percent Inhibition”, the inhibition at 0.111 µM was 67%.
The corresponding values for `Cn1cncc1Sc1nn([C@@H]2O[C@H](COS(N)(=O)=O)[C@@H](O)[C@@H]2F)c2ncnc(N)c12` [Compound I-134, [(2R,3R,4S,5R)-5-{4-amino-3-[(1-methyl-1H-imidazol-5-yl)sulfanyl]-1H-pyrazolo[3,4-d]pyrimidin-1-yl}-4-fluoro-3-hydroxytetrahydrofuran-2-yl]methyl Sulfamate] are 100 to 500 nM and 37%.
For `Nc1ncnc2c1c(SCC1CC1)nn2[C@@H]1O[C@H](COS(N)(=O)=O)[C@@H](O)[C@@H]1F` [Compound I-135, [(2R,3R,4S,5R)-5-{4-amino-3-[(cyclopropylmethyl)sulfanyl]-1H-pyrazolo[3,4-d]pyrimidin-1-yl}-4-fluoro-3-hydroxytetrahydrofuran-2-yl]methyl sulfamate] the same measures were 20 to 50 nM and 82%.
`Cn1cnc(Sc2nn([C@@H]3O[C@H](COS(N)(=O)=O)[C@@H](O)[C@@H]3F)c3ncnc(N)c23)c1` [Compound I-137, [(2R,3R,4S,5R)-5-{4-amino-3-[(1-methyl-1H-imidazol-4-yl)sulfanyl]-1H-pyrazolo[3,4-d]pyrimidin-1-yl}-4-fluoro-3-hydroxytetrahydrofuran-2-yl]methyl sulfamate]: the IC50 was 20 to 50 nM. Also, the inhibition at 0.111 µM (read-out: Percent Inhibition) stood at 80%.
For `Nc1ncnc2c1c(Sc1cccnc1)nn2[C@@H]1O[C@H](COS(N)(=O)=O)[C@@H](O)[C@@H]1F` [Compound I-138, {(2R,3R,4S,5R)-5-[4-amino-3-(pyridin-3-ylsulfanyl)-1H-pyrazolo[3,4-d]pyrimidin-1-yl]-4-fluoro-3-hydroxytetrahydrofuran-2-yl}methyl sulfamate], the IC50 fell in the range of 50 to 100 nM. Further, the inhibition at 0.111 µM (read-out: Percent Inhibition) came out at 64%.
In the case of `CC(C)Sc1nn([C@@H]2O[C@H](COS(N)(=O)=O)[C@@H](O)[C@@H]2F)c2ncnc(N)c12` [Compound I-139, {(2R,3R,4S,5R)-5-[4-amino-3-(isopropylsulfanyl)-1H-pyrazolo[3,4-d]pyrimidin-1-yl]-4-fluoro-3-hydroxytetrahydrofuran-2-yl}methyl Sulfamate], the IC50 was 20 to 50 nM. Also, where the note is “read-out: Percent Inhibition”, the inhibition at 0.111 µM is 84%.
For the compound `CC1CC1CSc1nn([C@@H]2O[C@H](COS(N)(=O)=O)[C@@H](O)[C@@H]2F)c2ncnc(N)c12` (some centres unmarked) [Compound I-140], the IC50 fell in the range of 20 to 50 nM. Besides, the inhibition at 0.111 µM (read-out: Percent Inhibition) is 75%.
With `Cc1cccc(Sc2nn([C@@H]3O[C@H](COS(N)(=O)=O)[C@@H](O)[C@@H]3F)c3ncnc(N)c23)c1` [Compound I-141, [(2R,3R,4S,5R)-5-{4-amino-3-[(3-methylphenyl)sulfanyl]-1H-pyrazolo[3,4-d]pyrimidin-1-yl}-4-fluoro-3-hydroxytetrahydrofuran-2-yl]methyl Sulfamate], the IC50 was 20 to 50 nM. Moreover, the inhibition at 0.123 µM (Concentration 0.123 μM, read-out: Percent Inhibition) is 76%.
As to `Nc1ncnc2c1c(SC(F)(F)F)nn2[C@@H]1O[C@H](COS(N)(=O)=O)[C@@H](O)[C@@H]1F` [Compound I-142, [(2R,3R,4S,5R)-5-{4-amino-3-[(trifluoromethyl)sulfanyl]-1H-pyrazolo[3,4-d]pyrimidin-1-yl}-4-fluoro-3-hydroxytetrahydrofuran-2-yl]methyl sulfamate], the IC50 is 50 to 100 nM. Further, the inhibition at 0.111 µM (read-out: Percent Inhibition) is 57%.
With `Nc1ncnc2c1c(Sc1ccc(C(F)(F)F)cn1)nn2[C@@H]1O[C@H](COS(N)(=O)=O)[C@@H](O)[C@@H]1F` [Compound I-143, [(2R,3R,4S,5R)-5-(4-amino-3-{[5-(trifluoromethyl)pyridin-2-yl]sulfanyl}-1H-pyrazolo[3,4-d]pyrimidin-1-yl)-4-fluoro-3-hydroxytetrahydrofuran-2-yl]methyl sulfamate], the IC50 is 50 to 100 nM. Besides, the inhibition at 0.111 µM (read-out: Percent Inhibition) was determined as 68%.

These data come from patent publication US10865208B2, “ATG7 inhibitors and the uses thereof” (Millennium Pharmaceuticals, Inc., priority 2016, dated 2020).
